Experimental data published in patent US11247965B2 (VenatoRx Pharmaceuticals, Inc., priority 2017, dated 2022).

Columns and labels:
[1] = system: HBV replication in HepAD38 cells; assay: Anti-HBV activity in HepAD38 cells, extracellular HBV DNA by QPCR; type: cell-based, HBV (genotype D, serotype ayw); settings: Hepatitis B virus, HePAD38, 168 h, read-out: Anti-HBV EC50, HepAD38 cells, extracellular HBV DNA by QPCR, 7 days of incubation
Method in brief: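 HepAD38 cells (HepG2 with tet-repressible HBV genotype D genome) seeded overnight, tetracycline removed, then treated 7 days with compounds (half-log dilutions, 30 μM–10 nM; 1:200 from DMSO). Supernatant HBV DNA quantified by QPCR against standard curve; % inhibition vs vehicle, EC50 by 4-parameter fit.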

[2] = In vitro cytotoxicity, MTT cell viability assay in HepG2 cells; type: cell-based; settings: human, Cytotoxicity CC50
Method in brief: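 Read-out: MTT formazan absorbance at 492 nm, expressed as % of vehicle signal; CC50 by 4-parameter non-linear regression. Parental HepG2, 20,000 cells/well, treated 7 days with compound from 30 μM down to 1.0 nM.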

CNC(=O)NCC(=O)N1CC2CN(C(=O)C(F)(F)c3cc(C(=O)Nc4ccc(F)c(C)c4)ccc3F)CC2C1 (stereo not drawn) [Example 284, 3-(1,1-difluoro-2-(5-((methylcarbamoyl)glycyl)hexahydropyrrolo[3,4-c]pyrrol-2(1H)-yl)-2-oxoethyl)-4-fluoro-N-(4-fluoro-3-methylphenyl)benzamide]
EC50 [1]: 5 to 30 µM
CC50 at 7 days [2]: > 30 µM

CC(=O)N[C@@H]1CC2CC[C@H](C1)N2C(=O)C(F)(F)c1cc(C(=O)Nc2ccc(F)c(C)c2)ccc1F [Example 263, 3-(2-((1R,3r,5S)-3-acetamido-8-azabicyclo[3.2.1]octan-8-yl)-1,1-difluoro-2-oxoethyl)-4-fluoro-N-(4-fluoro-3-methylphenyl)benzamide]
EC50 [1]: < 5 µM
CC50 at 7 days [2]: 5 to 30 µM

COC(=O)N1C[C@H]2COC[C@@H](C1)N2C(=O)C(F)(F)c1cc(C(=O)Nc2ccc(F)c(C)c2)ccc1F [Example 239, methyl (1R,5S)-9-(2,2-difluoro-2-(2-fluoro-5-((4-fluoro-3-methylphenyl)carbamoyl)phenyl)acetyl)-3-oxa-7,9-diazabicyclo[3.3.1]nonane-7-carboxylate]
EC50 [1]: < 5 µM
CC50 at 7 days [2]: 5 to 30 µM

Cc1cc(NC(=O)c2ccc(F)c(C(F)(F)C(=O)N3[C@H]4CC[C@@H]3c3cn[nH]c3C4)c2)ccc1F [Example 265, 3-(1,1-difluoro-2-((4R,7S)-1,4,5,6,7,8-hexahydro-4,7-epiminocyclohepta[c]pyrazol-9-yl)-2-oxoethyl)-4-fluoro-N-(4-fluoro-3-methylphenyl)benzamide]
EC50 [1]: < 5 µM
CC50 at 7 days [2]: 5 to 30 µM

Cc1cc(NC(=O)c2ccc(F)c(C(F)(F)C(=O)NC3CCC(C(=O)O)CC3)c2)ccc1F (stereo not drawn) [Example 235, (1r,4r)-4-(2,2-difluoro-2-(2-fluoro-5-((4-fluoro-3-methylphenyl)carbamoyl)phenyl)acetamido)cyclohexane-1-carboxylic acid]
EC50 [1]: 5 to 30 µM
CC50 at 7 days [2]: > 30 µM

Cc1cc(NC(=O)c2cccc(C(F)(F)C(=O)N3CCC(O)CC3)c2F)ccc1F [Example 92, 3-(1,1-difluoro-2-(4-hydroxypiperidin-1-yl)-2-oxoethyl)-2-fluoro-N-(4-fluoro-3-methylphenyl)benzamide]
EC50 [1]: < 5 µM
CC50 at 7 days [2]: 5 to 30 µM

Cc1cc(NC(=O)c2ccc(F)c(C(F)(F)C(=O)N3CCC(O)(CO)CC3)c2)cc(F)c1F [Example 248, 3-(1,1-difluoro-2-(4-hydroxy-4-(hydroxymethyl)piperidin-1-yl)-2-oxoethyl)-N-(3,4-difluoro-5-methylphenyl)-4-fluorobenzamide]
EC50 [1]: < 5 µM
CC50 at 7 days [2]: 5 to 30 µM

C[C@H](NC(=O)C(F)(F)c1cc(C(=O)Nc2ccc(F)c(Cl)c2)cn1C)C(F)(F)F [Example 140, (S)-N-(3-chloro-4-fluorophenyl)-5-(1,1-difluoro-2-oxo-2-((1,1,1-trifluoropropan-2-yl)amino)ethyl)-1-methyl-1H-pyrrole-3-carboxamide]
EC50 [1]: < 5 µM
CC50 at 7 days [2]: > 30 µM

Cc1cc(NC(=O)c2cc(C(O)(C(=O)NC(C)(C)C)C(C)C)cn2C)ccc1F (stereo not drawn) [Example 124, 4-(1-(tert-butylamino)-2-hydroxy-3-methyl-1-oxobutan-2-yl)-N-(4-fluoro-3-methylphenyl)-1-methyl-1H-pyrrole-2-carboxamide]
EC50 [1]: 5 to 30 µM
CC50 at 7 days [2]: > 30 µM

NC(=O)c1cc(NC(=O)c2ccc(Cl)c(C(F)(F)C(=O)N3CCC(O)CC3)c2)ccc1F [Example 60, N-(3-carbamoyl-4-fluorophenyl)-4-chloro-3-(1,1-difluoro-2-(4-hydroxypiperidin-1-yl)-2-oxoethyl)benzamide]
EC50 [1]: 5 to 30 µM
CC50 at 7 days [2]: > 30 µM

O=C(Nc1cc(F)c(F)c(F)c1)c1ccc(F)c(C(F)(F)C(=O)N2CCC(O)(CO)CC2)c1 [Example 174, 3-(1,1-difluoro-2-(4-hydroxy-4-(hydroxymethyl)piperidin-1-yl)-2-oxoethyl)-4-fluoro-N-(3,4,5-trifluorophenyl)benzamide]
EC50 [1]: < 5 µM
CC50 at 7 days [2]: 5 to 30 µM

Cc1ccc(C(=O)Nc2cc(F)c(F)c(F)c2)cc1C(F)(F)C(=O)N1[C@@H]2CC[C@H]1C[C@H](O)C2 [Example 205, 3-(1,1-difluoro-2-((1R,3s,5S)-3-hydroxy-8-azabicyclo[3.2.1]octan-8-yl)-2-oxoethyl)-4-methyl-N-(3,4,5-trifluorophenyl)benzamide]
EC50 [1]: 5 to 30 µM
CC50 at 7 days [2]: 5 to 30 µM

Cc1cc(NC(=O)c2ccc(F)c(C(F)(F)C(=O)N3[C@@H]4COC[C@H]3CN(S(N)(=O)=O)C4)c2)ccc1F [Example 266, 3-(1,1-difluoro-2-oxo-2-((1R,5S)-7-sulfamoyl-3-oxa-7,9-diazabicyclo[3.3.1]nonan-9-yl)ethyl)-4-fluoro-N-(4-fluoro-3-methylphenyl)benzamide]
EC50 [1]: < 5 µM
CC50 at 7 days [2]: > 30 µM

O=C(Nc1ccc(F)c(F)c1)c1ccc(F)c(C(F)(F)C(=O)N2[C@@H]3CC[C@H]2C[C@H](O)C3)c1 [Example 199, 3-(1,1-difluoro-2-((1R,3s,5S)-3-hydroxy-8-azabicyclo[3.2.1]octan-8-yl)-2-oxoethyl)-N-(3,4-difluorophenyl)-4-fluorobenzamide]
EC50 [1]: < 5 µM
CC50 at 7 days [2]: 5 to 30 µM

Cc1cc(NC(=O)c2ccn(C)c2C(F)(F)C(=O)N2CCC(O)CC2)ccc1F [Example 96, 2-(1,1-difluoro-2-(4-hydroxypiperidin-1-yl)-2-oxoethyl)-N-(4-fluoro-3-methylphenyl)-1-methyl-1H-pyrrole-3-carboxamide]
EC50 [1]: 5 to 30 µM
CC50 at 7 days [2]: > 30 µM

Cc1cc(NC(=O)c2cc(C(F)(F)C(=O)NC(C)C)n(C)c2)ccc1F [Example 102, 5-(1,1-difluoro-2-(isopropylamino)-2-oxoethyl)-N-(4-fluoro-3-methylphenyl)-1-methyl-1H-pyrrole-3-carboxamide]
EC50 [1]: < 5 µM
CC50 at 7 days [2]: > 30 µM

Cc1cc(NC(=O)c2cc(C(C)(O)C(=O)NC(C)(C)C)cn2C)ccc1F (stereo not drawn) [Example 123, 4-(1-(tert-butylamino)-2-hydroxy-1-oxopropan-2-yl)-N-(4-fluoro-3-methylphenyl)-1-methyl-1H-pyrrole-2-carboxamide]
EC50 [1]: 5 to 30 µM
CC50 at 7 days [2]: 5 to 30 µM

Cn1cc(NC(=O)c2ccc(F)c(C(F)(F)C(=O)N3CCC(O)CC3)c2)cn1 [Example 89, 3-(1,1-difluoro-2-(4-hydroxypiperidin-1-yl)-2-oxoethyl)-4-fluoro-N-(1-methyl-1H-pyrazol-4-yl)benzamide]
EC50 [1]: > 30 µM
CC50 at 7 days [2]: 5 to 30 µM

Cc1cc(NC(=O)c2ccnc(C(F)(F)C(=O)N3CCC(O)CC3)c2)ccc1F [Example 243, 2-(1,1-difluoro-2-(4-hydroxypiperidin-1-yl)-2-oxoethyl)-N-(4-fluoro-3-methylphenyl)isonicotinamide]
EC50 [1]: 5 to 30 µM
CC50 at 7 days [2]: > 30 µM

COc1ccc(C(=O)Nc2ccc(F)c(C)c2)cc1C(F)(F)C(=O)N1CCC(O)CC1 [Example 94, 3-(1,1-difluoro-2-(4-hydroxypiperidin-1-yl)-2-oxoethyl)-N-(4-fluoro-3-methylphenyl)-4-methoxybenzamide]
EC50 [1]: < 5 µM
CC50 at 7 days [2]: > 30 µM

Cc1cc(NC(=O)c2ccc(F)c(C(F)(F)C(=O)N3CCC(NS(C)(=O)=O)C(C)(C)C3)c2)ccc1F (stereo not drawn) [Example 286, 3-(2-(3,3-dimethyl-4-(methylsulfonamido)piperidin-1-yl)-1,1-difluoro-2-oxoethyl)-4-fluoro-N-(4-fluoro-3-methylphenyl)benzamide]
EC50 [1]: < 5 µM
CC50 at 7 days [2]: 5 to 30 µM

Cc1cc(NC(=O)c2cnc(C(F)(F)C(=O)N3CCC(O)CC3)s2)ccc1F [Example 44, 2-(1,1-difluoro-2-(4-hydroxypiperidin-1-yl)-2-oxoethyl)-N-(4-fluoro-3-methylphenyl)thiazole-5-carboxamide]
EC50 [1]: > 30 µM
CC50 at 7 days [2]: > 30 µM

Cn1cc(C(=O)Nc2ccc(F)c(Cl)c2)cc1C(F)(F)C(=O)NC1(C#N)CC1 [Example 146, N-(3-chloro-4-fluorophenyl)-5-(2-((1-cyanocyclopropyl)amino)-1,1-difluoro-2-oxoethyl)-1-methyl-1H-pyrrole-3-carboxamide]
EC50 [1]: < 5 µM
CC50 at 7 days [2]: > 30 µM

Cc1cc(NC(=O)c2ccc(F)c(C(F)(F)C(=O)N3CCC(O)C(F)(F)C3)c2)cc(F)c1F (stereo not drawn) [Example 250, 3-(2-(3,3-difluoro-4-hydroxypiperidin-1-yl)-1,1-difluoro-2-oxoethyl)-N-(3,4-difluoro-5-methylphenyl)-4-fluorobenzamide]
EC50 [1]: < 5 µM
CC50 at 7 days [2]: 5 to 30 µM

Cc1cc(NC(=O)c2cn(C)c(C(F)(F)C(=O)NC(C)(C)CO)c2C)ccc1F [Example 129, 5-(1,1-difluoro-2-((1-hydroxy-2-methylpropan-2-yl)amino)-2-oxoethyl)-N-(4-fluoro-3-methylphenyl)-1,4-dimethyl-1H-pyrrole-3-carboxamide]
EC50 [1]: < 5 µM
CC50 at 7 days [2]: > 30 µM

Cc1cc(NC(=O)c2ccc(F)c(C(F)(F)C(=O)N3[C@@H]4CC[C@H]3C[C@@H](O)C4)c2)cc(F)n1 [Example 224, 3-(1,1-difluoro-2-((1R,3r,5S)-3-hydroxy-8-azabicyclo[3.2.1]octan-8-yl)-2-oxoethyl)-4-fluoro-N-(2-fluoro-6-methylpyridin-4-yl)benzamide]
EC50 [1]: < 5 µM
CC50 at 7 days [2]: < 5 µM

O=C(Nc1ccc(F)c(F)c1)c1ccc(F)c(C(F)(F)C(=O)N2CC[C@H](CO)C2)c1 [Example 13, (S)-3-(1,1-difluoro-2-(3-(hydroxymethyl)pyrrolidin-1-yl)-2-oxoethyl)-N-(3,4-difluorophenyl)-4-fluorobenzamide]
EC50 [1]: 5 to 30 µM
CC50 at 7 days [2]: 5 to 30 µM
